pEC50, pKi: −log10 of the molar value.
Columns and labels:
[1] = from C=CCCC[C@@H]1[C@H]2C[C@H]2C[C@H]1OC(=O)N[C@H](C(=O)N1C[C@H](Oc2nc3cc(Cl)ccc3nc2C=C)C[C@H]1C(=O)OC)C(C)(C)C; rcm bond; Zhan Catalyst-1B; DCE; 4.97 mM; 83.0 °C; 0.67 h
[2] = target: T1, NS3 genotype 3a protease (UniProt Q81258); experiment: Ki determination, NS3 protease genotype 3a (fluorogenic depsipeptide substrate); type: biochemical, hepatitis C virus; details: NS3 protease domain genotype 3a, NS4A peptide
T1 construct: Purified NS3 protease domain (amino acids 1-181) of the genotype 1b and 3a virus were generated as above; fused on or other part: N-terminal hexahistidine tag with an rTEV protease cleavage site (vector p28-N6H-Tev-NS3(181)3)
T1 sequence (Q81258 1033-1663): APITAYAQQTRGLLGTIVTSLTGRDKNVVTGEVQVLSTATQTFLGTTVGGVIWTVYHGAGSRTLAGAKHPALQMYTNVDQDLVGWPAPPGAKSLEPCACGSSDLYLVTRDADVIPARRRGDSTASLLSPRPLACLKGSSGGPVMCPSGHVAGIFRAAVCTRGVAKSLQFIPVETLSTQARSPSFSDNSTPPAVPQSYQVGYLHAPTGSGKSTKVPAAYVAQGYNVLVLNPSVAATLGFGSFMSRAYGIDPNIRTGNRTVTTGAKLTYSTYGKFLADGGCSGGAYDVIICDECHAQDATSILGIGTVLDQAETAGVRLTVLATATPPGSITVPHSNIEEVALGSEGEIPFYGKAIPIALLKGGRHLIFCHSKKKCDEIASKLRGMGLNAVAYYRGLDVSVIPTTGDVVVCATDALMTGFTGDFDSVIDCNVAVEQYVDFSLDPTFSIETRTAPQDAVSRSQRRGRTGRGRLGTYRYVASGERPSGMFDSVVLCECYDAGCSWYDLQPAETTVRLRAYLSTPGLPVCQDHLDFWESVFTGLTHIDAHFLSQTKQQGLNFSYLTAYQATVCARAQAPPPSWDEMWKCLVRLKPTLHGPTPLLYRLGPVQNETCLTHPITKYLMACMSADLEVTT
From the text: (§1) Ki Determination for Genotypes 1b and 3a NS3 Protease.
(§2) Purified NS3 protease domain (amino acids 1-181) of the genotype 1b and 3a virus were generated as above. The internally quenched fluorogenic depsipeptide substrate Ac-DED(Edans)-EEAbuψ[COO]ASK(Dabcyl)-NH2 and a synthetic peptide containing the hydrophobic core residues of the NS4A protein cofactor ([…]; NS4A peptide) were obtained from Anaspec, Inc. (San Jose, Calif.). Other chemicals and biochemicals were of reagent grade or better and were purchased from standard suppliers.
(§3) Reactions were run at room temperature in buffer consisting of 50 mM HEPES, 40% glycerol, 0.05% Triton X-100, 10 mM DTT, and 10% DMSO. The final assay solutions contained 50 pM NS3 genotype 1b protease or 200 pM genotype 3a protease, 20 μM NS4A peptide, and 4 μM substrate (genotype 1b) or 2 μM substrate (genotype 3a). Inhibitor concentrations varied from 100 nM to 5 pM in 3-fold dilutions, and no-inhibitor controls were included.
(§4) Compound dilutions were made in DMSO at 20× final concentration. Reaction mixtures were prepared in 96-well assay plates. A solution of enzyme and NS4A peptide in assay buffer (25 μL volume with both reagents at 4× final concentration) was mixed with 45 μL assay buffer and 5 μL of either inhibitor or DMSO, and pre-incubated at room temperature for 1 hour. The reaction was started by addition of 25 μL substrate solution at 4× final concentration. Plates were mixed vigorously for 5-10 seconds and reactions were allowed to proceed for 90 minutes. Fluorescence was measured every 30 s between 90 and 120 minutes reaction time using a Tecan InfiniTe M1000 or PerkinElmer Envision multimode plate reader with an excitation wavelength of 340 nm and an emission wavelength of 490 nm.
(§5) Rates were calculated from the progress curves at steady state, in the time frame of 90-120 minutes after addition of substrate. To determine the Ki, rates were plotted as a function of inhibitor concentration, and the data were fit with equation 1 (Morrison, J. F., Biochimica et Biophysica Acta 1969, 185, 269-286) to calculate Ki^app using GraphPad Prism 5. Active fraction of enzyme was determined by active site titration with known potent inhibitors. Ki was calculated from Ki^app/(1+[[S]/Km]).

[3] = tested on: genotype 1a stable HCV replicon (H77) in Huh-7-derived cells; experiment: Stable subgenomic HCV replicon, genotype 1a, Renilla luciferase; type: cell-based; details: Hepatitis C virus, stable replicon genotype 1a, 72 h, read-out: EC50 1A RLUC
Method: (§6) Antiviral potency (EC50) was determined in both stable subgenomic HCV replicon cell lines and transient-transfected HCV replicon cells. The term half maximal effective concentration (EC50) refers to the concentration of a drug which induces a response halfway between the baseline and maximum after the exposure time specified below.
(§7) Stable subgenomic HCV replicons for genotype 1a, 1b, 2a, 3a, and 4a were established in Huh-7-derived cells as described by Lohmann et al (Lohmann V, Korner F, Koch J, et al Replication of subgenomic hepatitis C virus RNAs in a hepatoma cell line. Science 1999; 285:119-3). Each stable cell line contains a bicistronic HCV replicon that encodes a humanized Renilla luciferase (hRLuc) reporter gene fused to a selectable neomycin-resistance gene, followed by an EMCV IRES and the NS3-NS5B coding region of HCV. […] Luciferase activity was measured as a marker for intracellular HCV replication levels.
(§8) The genotype 1a stable replicon was derived from the H77 HCV strain and contained adaptive mutations P1496L and S2204I. The genotype 1b stable replicon was derived from the Con1 HCV strain and contained adaptive mutations E1202G, T1280I, and K1846T. […] The genotype 3a stable replicon was derived from the S52 HCV strain and contained adaptive mutations P1121 L, A1198T and S2210I (equivalent to S2204I in genotype 1). The genotype 4a stable replicon was derived from the ED43 HCV strain and contained adaptive mutations Q1691R and S2204I. All replicon cell lines were propagated in Huh-7-derived cells and maintained in Dulbecco's modified Eagle's Medium (DMEM) supplemented with 10% fetal bovine serum (FBS) and 0.5 mg/ml G418.
(§9) To perform EC50 assays, cells from each HCV replicon were dispensed into 384-well plates. Compounds were dissolved in DMSO at a concentration of 10 mM and diluted in DMSO using an automated pipetting instrument. Three-fold serially diluted compounds were directly added to the cells using an automated instrument. DMSO was used as a negative (solvent; no inhibition) control, and a combination of three HCV inhibitors including a protease inhibitor; an NS5A inhibitor and a nucleoside inhibitor was used at concentrations >100×EC50 as a positive control (100% inhibition). Seventy-two hours later, cells were lysed and Renilla luciferase activity were quantified as recommended by the manufacturer (Promega-Madison, Wis.). Non-linear regression was performed to calculate […], values.

[4] = tested on: genotype 2a stable HCV replicon (JFH-1) in Huh-7-derived cells; experiment: Stable subgenomic HCV replicon, genotype 2a, Renilla luciferase; type: cell-based; details: Hepatitis C virus, stable replicon genotype 2a, 72 h, read-out: EC50 2A RLUC
Method: as §6, §7, §8, §9

[5] = target: T2, NS3 genotype 1b protease (Hepatitis C virus genotype 1b, UniProt Q9WMX2, E1202G); experiment: Ki determination, NS3 protease genotype 1b (fluorogenic depsipeptide substrate); type: biochemical; details: NS3 protease domain genotype 1b, NS4A peptide
T2 construct: Purified NS3 protease domain (amino acids 1-181) of the genotype 1b and 3a virus were generated as above; K3 hexahistidine tag (N); rTEV protease cleavage site (N); made in house; host or cells: E. coli BL21AI
From the text: as §1, §2, §3, §4, §5

[6] = tested on: genotype 3a stable HCV replicon (S52) in Huh-7-derived cells; experiment: Stable subgenomic HCV replicon, genotype 3a, Renilla luciferase; type: cell-based; details: Hepatitis C virus, 72 h, read-out: EC50 3A RLUC
Method: as §6, §7, §8, §9

[7] = tested on: genotype 4a stable HCV replicon (ED43) in Huh-7-derived cells; experiment: Stable subgenomic HCV replicon, genotype 4a, Renilla luciferase; type: cell-based; details: Hepatitis C virus, 72 h, read-out: EC50 4A RLUC
Method: as §6, §7, §8, §9

[8] = tested on: genotype 1b stable HCV replicon (Con1) in Huh-7-derived cells; experiment: Stable subgenomic HCV replicon, genotype 1b, Renilla luciferase; type: cell-based; details: Hepatitis C virus, stable replicon genotype 1b, 72 h, read-out: EC50 1B RLUC
Method: as §6, §7, §8, §9

T2 sequence (Q9WMX2 1027-1207 E1202G, other chains not shown): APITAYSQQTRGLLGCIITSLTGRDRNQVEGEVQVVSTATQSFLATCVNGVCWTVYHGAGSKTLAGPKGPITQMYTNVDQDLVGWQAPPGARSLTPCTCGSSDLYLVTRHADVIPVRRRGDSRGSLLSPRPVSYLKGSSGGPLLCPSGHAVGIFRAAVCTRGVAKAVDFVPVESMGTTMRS

SMILES	ring closure, yield of all isomers [1] [%]	pKi [2]	pEC50 [3]	pEC50 [4]	pKi [5]	pEC50 [6]	pEC50 [7]	pEC50 [8]
COC(=O)[C@@H]1C[C@@H]2CN1C(=O)[C@H](C(C)(C)C)NC(=O)O[C@@H]1C[C@@H]3C[C@@H]3[C@H]1CCCC=Cc1nc3ccc(Cl)cc3nc1O2	56.6	–	–	–	–	–	–	–
COc1ccc2nc3c(nc2c1)O[C@@H]1C[C@@H](C(=O)N[C@]2(C(=O)NS(=O)(=O)C4CC4)C[C@H]2C(F)F)N(C1)C(=O)[C@H](C(C)(C)C)NC(=O)O[C@H]1[C@@H]2CC[C@@H](C2)[C@@H]1CCCCC3 [Example 6, (1S,4R,4aS,8S,11S,13R,25aS)-8-tert-butyl-N-[(1R,2R)-1-[(cyclopropylsulfonyl)carbamoyl]-2-(difluoromethyl)cyclopropyl]-17-methoxy-6,9-dioxo-2,3,4,4a,6,7,8,9,12,13,21,22,23,24,25,25a-hexadecahydro-1H,11H-1, 4:10,13-dimethanoquinoxalino[2,3-k][1,10,3,6]benzodioxadiazacyclononadecine-11-carboxamide]	–	8.92	6.14	6.53	11.00	5.42	6.36	6.24

From patent US9617310B2 (priority 2013, dated 2017)
